In ChEMBL document CHEMBL4725279, “Design and synthesis of peptide-based chimeric molecules to induce degradation of the estrogen and androgen receptors” (Bioorg Med Chem, 2020):

What was measured:
Type in all cases: cell-based
[1] = biological target: T1, von Hippel-Lindau disease tumor suppressor/Aryl hydrocarbon receptor (Homo sapiens, UniProt P35869+P40337); test: Protac activity at VHL/AhR in human MCF7 cells assessed as induction of AhR protein degradation by measuring AhR protein level at 20 uM incubated for 8 hrs by western blot analysis relative to lamin B; conditions: mcf7, 8 h
[2] = biological target: T1, von Hippel-Lindau disease tumor suppressor/Aryl hydrocarbon receptor; test: Protac activity at VHL/AhR in human MCF7 cells assessed as induction of AhR protein degradation by measuring AhR protein level at 20 uM incubated for 24 hrs by western blot analysis relative to lamin B; conditions: mcf7, 24 h
[3] = biological target: T2, von Hippel-Lindau disease tumor suppressor/Androgen receptor (Homo sapiens) (UniProt P10275+P40337); test: Protac activity at VHL/AR in human MCF7 cells assessed as induction of AR protein degradation by measuring AR protein level at 20 uM incubated for 8 hrs by western blot analysis relative to lamin B
[4] = biological target: T2, von Hippel-Lindau disease tumor suppressor/Androgen receptor (Homo sapiens); test: Protac activity at VHL/AR in human MCF7 cells assessed as induction of AR protein degradation by measuring AR protein level at 20 uM incubated for 8 hrs in presence of proteasome inhibitor, MG132 by western blot analysis relative to lamin B
[5] = biological target: T3, von Hippel-Lindau disease tumor suppressor/Estrogen receptor (Homo sapiens) (UniProt P03372+P40337); test: Protac activity at VHL/ERalpha in human MCF7 cells assessed as induction of ERalpha protein degradation incubated for 8 to 24 hrs by western blot analysis; conditions: time hrs 8-24
[6] = biological target: T3, von Hippel-Lindau disease tumor suppressor/Estrogen receptor (Homo sapiens); test: Protac activity at VHL/ERalpha in human MCF7 cells assessed as induction of ERalpha protein degradation by measuring ERalpha protein level at 20 uM incubated for 8 hrs in presence of proteasome inhibitor, MG132 by western blot analysis relative to lamin B
[7] = biological target: T2, von Hippel-Lindau disease tumor suppressor/Androgen receptor (Homo sapiens); test: Protac activity at VHL/AR in human MCF7 cells assessed as induction of AR protein degradation by measuring AR protein level at 10 uM incubated for 24 hrs by western blot analysis relative to lamin B
[8] = biological target: T3, von Hippel-Lindau disease tumor suppressor/Estrogen receptor (Homo sapiens); test: Protac activity at VHL/ERalpha in VHL siRNA-transfected human MCF7 cells assessed as induction of ERalpha protein degradation by measuring ERalpha protein level at 20 uM incubated for 8 hrs by western blot analysis relative to lamin B
[9] = biological target: T2, von Hippel-Lindau disease tumor suppressor/Androgen receptor (Homo sapiens); test: Protac activity at VHL/AR in human MCF7 cells assessed as induction of AR protein degradation by measuring AR protein level at 20 uM incubated for 24 hrs by western blot analysis relative to lamin B
[10] = biological target: T3, von Hippel-Lindau disease tumor suppressor/Estrogen receptor (Homo sapiens); test: Protac activity at VHL/ERalpha in human MCF7 cells assessed as induction of ERalpha protein degradation by measuring ERalpha protein level at 20 uM incubated for 8 hrs by western blot analysis relative to lamin B
[11] = biological target: T1, von Hippel-Lindau disease tumor suppressor/Aryl hydrocarbon receptor; test: Protac activity at VHL/AhR in human MCF7 cells assessed as induction of AhR protein degradation by measuring AhR protein level at 20 uM incubated for 8 hrs in presence of ubiquitin activating inhibitor MLN7243 by western blot analysis relative to lamin B; conditions: mcf7, 8 h
[12] = biological target: T3, von Hippel-Lindau disease tumor suppressor/Estrogen receptor (Homo sapiens); test: Protac activity at VHL/ERalpha in human MCF7 cells assessed as induction of ERalpha protein degradation by measuring ERalpha protein level at 20 uM incubated for 24 hrs by western blot analysis relative to lamin B
[13] = biological target: T3, von Hippel-Lindau disease tumor suppressor/Estrogen receptor (Homo sapiens); test: Protac activity at VHL/ERalpha in human MCF7 cells assessed as induction of ERalpha protein degradation by measuring ERalpha protein level at 20 uM incubated for 8 hrs in presence of ubiquitin activating inhibitor MLN7243 by western blot analysis relative to lamin B
[14] = biological target: T3, von Hippel-Lindau disease tumor suppressor/Estrogen receptor (Homo sapiens); test: Protac activity at VHL/ERalpha in human MCF7 cells assessed as induction of ERalpha protein degradation by measuring ERalpha protein level at 10 uM incubated for 8 hrs by western blot analysis relative to lamin B
[15] = biological target: T2, von Hippel-Lindau disease tumor suppressor/Androgen receptor (Homo sapiens); test: Protac activity at VHL/AR in human MCF7 cells assessed as induction of AR protein degradation by measuring AR protein level at 20 uM incubated for 8 hrs in presence of ubiquitin activating inhibitor MLN7243 by western blot analysis relative to lamin B
[16] = biological target: T2, von Hippel-Lindau disease tumor suppressor/Androgen receptor (Homo sapiens); test: Protac activity at VHL/AR in human MCF7 cells assessed as induction of AR protein degradation by measuring AR protein level at 5 uM incubated for 8 hrs by western blot analysis relative to lamin B
[17] = biological target: T1, von Hippel-Lindau disease tumor suppressor/Aryl hydrocarbon receptor; test: Protac activity at VHL/AhR in human MCF7 cells assessed as induction of AhR protein degradation by measuring AhR protein level at 10 uM incubated for 24 hrs by western blot analysis relative to lamin B; conditions: mcf7, 24 h
[18] = biological target: T1, von Hippel-Lindau disease tumor suppressor/Aryl hydrocarbon receptor; test: Protac activity at VHL/AhR in human MCF7 cells assessed as induction of AhR protein degradation by measuring AhR protein level at 10 uM incubated for 8 hrs by western blot analysis relative to lamin B; conditions: mcf7, 8 h
[19] = biological target: T3, von Hippel-Lindau disease tumor suppressor/Estrogen receptor (Homo sapiens); test: Protac activity at VHL/ERalpha in human MCF7 cells assessed as induction of ERalpha protein degradation by measuring ERalpha protein level at 5 uM incubated for 24 hrs by western blot analysis relative to lamin B
[20] = biological target: T1, von Hippel-Lindau disease tumor suppressor/Aryl hydrocarbon receptor; test: Protac activity at VHL/AhR in human MCF7 cells assessed as induction of AhR protein degradation by measuring AhR protein level at 20 uM incubated for 8 hrs in presence of proteasome inhibitor, MG132 by western blot analysis relative to lamin B; conditions: mcf7, 8 h
[21] = biological target: T2, von Hippel-Lindau disease tumor suppressor/Androgen receptor (Homo sapiens); test: Protac activity at VHL/AR in human MCF7 cells assessed as induction of AR protein degradation by measuring AR protein level at 10 uM incubated for 8 hrs by western blot analysis relative to lamin B
[22] = biological target: T2, von Hippel-Lindau disease tumor suppressor/Androgen receptor (Homo sapiens); test: Protac activity at VHL/AR in VHL siRNA-transfected human MCF7 cells assessed as induction of AR protein degradation by measuring AR protein level at 20 uM incubated for 8 hrs by western blot analysis relative to lamin B
[23] = biological target: T3, von Hippel-Lindau disease tumor suppressor/Estrogen receptor (Homo sapiens); test: Protac activity at VHL/ERalpha in human MCF7 cells assessed as induction of ERalpha protein degradation by measuring ERalpha protein level at 10 uM incubated for 24 hrs by western blot analysis relative to lamin B
[24] = biological target: T2, von Hippel-Lindau disease tumor suppressor/Androgen receptor (Homo sapiens); test: Protac activity at VHL/AR in human MCF7 cells assessed as induction of AR protein degradation incubated for 8 to 24 hrs by western blot analysis; conditions: time hrs 8-24
[25] = biological target: T2, von Hippel-Lindau disease tumor suppressor/Androgen receptor (Homo sapiens); test: Protac activity at VHL/AR in human MCF7 cells assessed as induction of AR protein degradation by measuring AR protein level at 5 uM incubated for 24 hrs by western blot analysis relative to lamin B
[26] = biological target: T3, von Hippel-Lindau disease tumor suppressor/Estrogen receptor (Homo sapiens); test: Protac activity at VHL/ERalpha in human MCF7 cells assessed as induction of ERalpha protein degradation by measuring ERalpha protein level at 5 uM incubated for 8 hrs by western blot analysis relative to lamin B
[27] = biological target: T1, von Hippel-Lindau disease tumor suppressor/Aryl hydrocarbon receptor; test: Protac activity at VHL/AhR in human MCF7 cells assessed as induction of AhR protein degradation by measuring AhR protein level at 5 uM incubated for 8 hrs by western blot analysis relative to lamin B; conditions: mcf7, 8 h
[28] = biological target: T1, von Hippel-Lindau disease tumor suppressor/Aryl hydrocarbon receptor; test: Protac activity at VHL/AhR in human MCF7 cells assessed as induction of AhR protein degradation by measuring AhR protein level at 5 uM incubated for 24 hrs by western blot analysis relative to lamin B; conditions: mcf7, 24 h

T2 sequence (P10275 whole entry, looked up): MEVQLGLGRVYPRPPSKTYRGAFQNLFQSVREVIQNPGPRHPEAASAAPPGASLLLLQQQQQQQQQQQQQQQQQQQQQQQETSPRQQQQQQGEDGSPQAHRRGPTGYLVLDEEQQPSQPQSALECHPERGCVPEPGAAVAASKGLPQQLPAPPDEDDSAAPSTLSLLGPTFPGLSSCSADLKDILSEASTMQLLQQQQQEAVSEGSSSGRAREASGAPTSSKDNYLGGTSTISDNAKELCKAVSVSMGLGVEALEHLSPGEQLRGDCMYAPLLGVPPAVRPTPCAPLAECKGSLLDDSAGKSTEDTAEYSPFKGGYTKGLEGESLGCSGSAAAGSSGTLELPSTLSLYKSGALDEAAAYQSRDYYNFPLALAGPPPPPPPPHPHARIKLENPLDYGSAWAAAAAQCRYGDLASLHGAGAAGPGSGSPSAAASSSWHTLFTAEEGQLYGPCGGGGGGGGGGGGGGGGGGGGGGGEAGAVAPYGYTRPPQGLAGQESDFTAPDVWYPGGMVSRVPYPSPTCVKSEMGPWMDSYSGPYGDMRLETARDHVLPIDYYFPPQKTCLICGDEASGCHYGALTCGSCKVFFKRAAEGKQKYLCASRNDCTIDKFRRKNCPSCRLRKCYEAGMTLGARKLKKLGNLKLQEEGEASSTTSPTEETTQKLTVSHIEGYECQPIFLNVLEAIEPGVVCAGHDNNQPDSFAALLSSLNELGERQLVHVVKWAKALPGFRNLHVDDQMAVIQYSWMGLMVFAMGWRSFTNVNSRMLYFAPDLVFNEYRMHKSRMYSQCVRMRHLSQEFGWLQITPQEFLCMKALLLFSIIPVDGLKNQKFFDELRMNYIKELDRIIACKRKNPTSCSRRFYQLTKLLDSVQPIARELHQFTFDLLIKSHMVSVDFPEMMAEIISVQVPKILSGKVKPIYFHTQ
T2 sequence (P40337 whole entry, looked up): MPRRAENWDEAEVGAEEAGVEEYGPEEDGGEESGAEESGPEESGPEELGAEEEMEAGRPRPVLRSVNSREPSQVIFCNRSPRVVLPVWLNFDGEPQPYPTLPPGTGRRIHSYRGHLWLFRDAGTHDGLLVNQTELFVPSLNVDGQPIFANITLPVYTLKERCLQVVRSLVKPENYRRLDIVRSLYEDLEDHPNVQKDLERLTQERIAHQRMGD
T1 sequence (P35869 whole entry): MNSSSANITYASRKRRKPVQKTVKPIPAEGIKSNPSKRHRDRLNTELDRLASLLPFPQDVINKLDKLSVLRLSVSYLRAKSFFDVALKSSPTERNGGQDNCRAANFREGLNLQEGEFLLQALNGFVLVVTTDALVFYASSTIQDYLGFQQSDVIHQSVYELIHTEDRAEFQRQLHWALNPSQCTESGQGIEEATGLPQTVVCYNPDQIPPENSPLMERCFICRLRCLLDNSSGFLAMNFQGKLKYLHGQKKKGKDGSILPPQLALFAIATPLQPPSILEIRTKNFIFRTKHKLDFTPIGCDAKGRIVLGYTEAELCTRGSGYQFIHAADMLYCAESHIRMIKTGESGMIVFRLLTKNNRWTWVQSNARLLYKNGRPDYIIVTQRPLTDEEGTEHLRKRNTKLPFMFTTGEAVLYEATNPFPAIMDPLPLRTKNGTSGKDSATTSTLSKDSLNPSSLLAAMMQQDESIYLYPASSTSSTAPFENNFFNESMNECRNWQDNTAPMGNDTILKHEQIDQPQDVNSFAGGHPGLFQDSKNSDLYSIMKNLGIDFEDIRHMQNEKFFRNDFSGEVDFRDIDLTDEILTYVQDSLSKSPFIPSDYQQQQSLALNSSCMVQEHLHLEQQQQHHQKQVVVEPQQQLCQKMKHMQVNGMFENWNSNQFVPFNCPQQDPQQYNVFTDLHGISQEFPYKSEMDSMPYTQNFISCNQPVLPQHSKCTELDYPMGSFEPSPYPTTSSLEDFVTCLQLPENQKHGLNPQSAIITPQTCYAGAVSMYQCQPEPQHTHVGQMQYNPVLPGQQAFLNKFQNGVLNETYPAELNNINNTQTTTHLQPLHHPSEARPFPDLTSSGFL
T1 sequence (P40337 whole entry): as the sequence (P40337 whole entry, looked up) above
T3 sequence (P03372 whole entry, looked up): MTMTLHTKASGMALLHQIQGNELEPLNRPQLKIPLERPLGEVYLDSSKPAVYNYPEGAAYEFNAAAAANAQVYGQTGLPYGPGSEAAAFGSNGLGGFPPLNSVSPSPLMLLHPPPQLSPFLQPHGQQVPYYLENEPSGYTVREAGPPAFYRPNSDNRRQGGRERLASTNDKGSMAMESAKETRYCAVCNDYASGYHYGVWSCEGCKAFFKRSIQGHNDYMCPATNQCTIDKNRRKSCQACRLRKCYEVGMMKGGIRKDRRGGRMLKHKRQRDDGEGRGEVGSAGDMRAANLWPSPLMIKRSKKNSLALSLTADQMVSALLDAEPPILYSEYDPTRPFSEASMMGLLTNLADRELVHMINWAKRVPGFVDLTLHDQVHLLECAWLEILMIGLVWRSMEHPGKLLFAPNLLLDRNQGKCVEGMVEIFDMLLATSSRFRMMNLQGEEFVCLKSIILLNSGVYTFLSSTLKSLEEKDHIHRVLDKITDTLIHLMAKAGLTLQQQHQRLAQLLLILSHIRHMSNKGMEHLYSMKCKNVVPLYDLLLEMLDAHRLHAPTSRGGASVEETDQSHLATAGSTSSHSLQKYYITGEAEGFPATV
T3 sequence (P40337 whole entry, looked up): as the sequence (P40337 whole entry, looked up) above

## CC[C@H](C)[C@@H]1NC(=O)[C@H](NC(=O)[C@@H](N)CCCCNC(=O)CCCCC(=O)NCCOCCOCCOCC(=O)N[C@H](C(=O)N2C[C@H](O)C[C@H]2C(=O)NCc2ccc(-c3scnc3C)cc2)C(C)(C)C)CSSC[C@@H](C(=O)N[C@@H](CCCNC(=N)N)C(=O)N[C@@H](CC(C)(C)C)C(=O)N[C@@H](CC(C)C)C(=O)N[C@@H](CCC(N)=O)C(=O)NCC(=O)NCC(=O)NCC(=O)N[C@@H](CCCNC(=N)N)C(=O)N[C@@H](CCCNC(=N)N)C(=O)N[C@@H](CCCNC(=N)N)C(=O)N[C@@H](CCCNC(=N)N)C(=O)N[C@@H](CCCNC(=N)N)C(=O)N[C@@H](CCCNC(=N)N)C(=O)N[C@@H](CCCNC(=N)N)C(N)=O)NC(=O)[C@H](CC(C)C)NC1=O
[1]
  Activity: 105%
[2]
  Activity: 97%
[3]
  Activity: 54%
[4]
  Activity: 97%
[5]
  Activity: Dose-dependent effect
[6]
  Activity: 92%
[7]
  Activity: 103%
[8]
  Activity: 84%
[9]
  Activity: 90%
[10]
  Activity: 64%
[11]
  Activity: 101%
[12]
  Activity: 57%
[13]
  Activity: 108%
[14]
  Activity: 84%
[15]
  Activity: 102%
[16]
  Activity: 92%
[17]
  Activity: 100%
[18]
  Activity: 105%
[19]
  Activity: 86%
[20]
  Activity: 113%
[21]
  Activity: 75%
[22]
  Activity: 98%
[23]
  Activity: 76%
[24]
  Activity: Dose-dependent effect
[25]
  Activity: 97%
[26]
  Activity: 93%
[27]
  Activity: 84%
[28]
  Activity: 83%
